Where two headings read alike, the source gives them in different places.

Our source for the IC50 values is US20080045492A1, “Mitotic Kinesin Inhibitors” (priority 2004, published 2008).

The target in the assay is T1, human KSP motor domain (KSP(367H)) (Homo sapiens, UniProt P52732).
T1 construct: were used to amplify the motor domain and the neck linker region; made in house; host or cells: E. coli BL21 (DE3), pRSETa
T1 sequence (P52732 18-359 limits assumed): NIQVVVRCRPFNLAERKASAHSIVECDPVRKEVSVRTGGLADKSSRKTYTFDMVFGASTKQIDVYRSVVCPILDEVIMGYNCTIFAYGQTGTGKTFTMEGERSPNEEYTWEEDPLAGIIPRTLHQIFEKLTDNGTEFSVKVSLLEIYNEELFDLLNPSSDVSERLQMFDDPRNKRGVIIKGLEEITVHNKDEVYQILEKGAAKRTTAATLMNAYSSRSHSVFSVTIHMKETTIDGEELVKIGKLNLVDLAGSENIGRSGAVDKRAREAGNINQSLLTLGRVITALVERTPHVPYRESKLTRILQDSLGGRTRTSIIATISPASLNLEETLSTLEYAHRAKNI
Nature of the assay: Kinesin ATPase In Vitro Assay. The format is biochemical. Here is the method:
I. Kinesin ATPase In Vitro Assay
The N-terminal primer 5′-[…] (SEQ. ID. NO.: 1) and the C-terminal primer 5′-[…] […] […] The PCR products were digested with AseI and XhoI, ligated into the NdeI/XhoI digestion product of pRSETa (Invitrogen) and transformed into E. coli BL21 (DE3).
Cells were grown at 37° C. to an OD600 of 0.5. After cooling the culture to room temperature expression of KSP was induced with 100 μM IPTG and incubation was continued overnight. Cells were pelleted by centrifugation and washed once with ice-cold PBS. Pellets were flash-frozen and stored −80° C.
Cell pellets were thawed on ice and resuspended in lysis buffer (50 mM K-HEPES, pH 8.0, 250 mM KCl, 0.1% Tween, 10 mM imidazole, 0.5 mM Mg-ATP, 1 mM PMSF, 2 mM benzimidine, 1× complete protease inhibitor cocktail (Roche)). Cell suspensions were incubated with 1 mg/ml lysozyme and 5 mM β-mercaptoethanol on ice for 10 minutes, followed by sonication (3×30 sec). All subsequent procedures were performed at 4° C. Lysates were centrifuged at 40,000×g for 40 minutes. Supernatants were diluted and loaded onto an SP Sepharose column (Pharmacia, 5 ml cartridge) in buffer A (50 mM K-HEPES, pH 6.8, 1 mM MgCl2, 1 mM EGTA, 10 μM Mg-ATP, 1 mM DTT) and eluted with a 0 to 750 mM KCl gradient in buffer A. Fractions containing KSP were pooled and incubated with Ni-NTA resin (Qiagen) for one hour. The resin was washed three times with buffer B (Lysis buffer minus PMSF and protease inhibitor cocktail), followed by three 15-minute incubations and washes with buffer B. Finally, the resin was incubated and washed for 15 minutes three times with buffer C (same as buffer B except for pH 6.0) and poured into a column. KSP was eluted with elution buffer (identical to buffer B except for 150 mM KCl and 250 mM imidazole). KSP-containing fractions were pooled, made 10% in sucrose, and stored at −80° C.
Microtubules are prepared from tubulin isolated from bovine brain. Purified tubulin (>97% MAP-free) at 1 mg/ml is polymerized at 37° C. in the presence of 10 μM paclitaxel, 1 mM DTT, 1 mM GTP in BRB80 buffer (80 mM K-PIPES, 1 mM EGTA, 1 mM MgCl2 at pH 6.8). The resulting microtubules are separated from non-polymerized tubulin by ultracentrifugation and removal of the supernatant. The pellet, containing the microtubules, is gently resuspended in 10 μM paclitaxel, 1 mM DTT, 50 μg/ml ampicillin, and 5 μg/ml chloramphenicol in BRB80.
The kinesin motor domain is incubated with microtubules, 1 mM ATP (1:1 MgCl2: Na-ATP), and compound at 23° C. in buffer containing 80 mM K-HEPES (pH 7.0), 1 mM EGTA, 1 mM DTT, 1 mM MgCl2, and 50 mM KCl. […] Free phosphate from the ATP hydrolysis reaction is measured via a quinaldine red/ammonium molybdate assay by adding a […] of quench C (e.g., to a mixture of 40 μl reaction volume+40 μl stop buffer is then added 120 μl quench C). […] Quench C is a 2:1 ratio of quench A:quench B The reaction is incubated for 5-10 minutes at 23° C., and the absorbance of the phospho-molybdate complex is measured at 540 nm.

[1] abbreviates: kinesin motor domain with microtubules, 1 mM ATP, 23° C., read-out: IC50.

For orientation: IC50 means the concentration that inhibits the measured activity by half. Consider `CON(C)C(=O)C1=NN(c2cc(C)ccc2F)CC1(CCCO)c1ccccc1` (racemic) [Compound 2-1, (±)-1-(2-fluoro-5-methylphenyl)-4-(3-hydroxypropyl)-N-methoxy-N-methyl-4-phenyl-4,5-dihydro-1H-pyrazole-3-carboxamide], for which, under setting [1], the IC50 was not above 50 µM.

For `CC(=O)C1=NN(c2cc(C)ccc2F)CC1(CCCN(C)C)c1ccccc1` (racemic) [Compound 2-3, (±)-(1-[4-[3-(dimethylamino)propyl]-1-(2-fluoro-5-methylphenyl)-4-phenyl-4,5-dihydro-1H-pyrazol-3-yl]ethanone], the IC50 is not above 50 µM.

As for `CC(=O)C1=NN(c2cccc(F)c2)CC1c1ccccc1` (racemic) [Compound 3-5, (±)-1-[1-(3-fluorophenyl)-4-phenyl-4,5-dihydro-1H-pyrazol-3-yl]ethanone], under setting [1], the IC50 was not above 50 µM.

In the case of `CCOC(=O)C1=NN(c2cc(F)ccc2F)C(N2CCOCC2)C1c1ccccc1` (racemic) [Compound 44, (±)-Ethyl 1-(2,5-difluorophenyl)-5-morpholin-4-yl-4-phenyl-4,5-dihydro-1H-pyrazole-3-carboxylate], the IC50 under setting [1] is not above 50 µM.

Consider `CC(=O)c1nn(-c2cc(F)ccc2F)cc1-c1ccccc1` [Compound 4-7, 1-[1-(2,5-difluorophenyl)-4-phenyl-1H-pyrazol-3-yl]ethanone], for which the IC50 under setting [1] was not above 50 µM.
